Data set [1] relates to HMEC cells. The data set can be described thus: Annexin V/PI staining in HMEC cells. Type of data set: cell-based. Conditions: 25 nM. The method, then: FIG. 11 illustrates an embodiment of the present invention and illustrates SIM-1 and SIM-2 induced apoptosis in MDA-MB-468 TNBC cells, but not HMEC control cells. MDA-MB-468 cells were treated with increasing doses of (A) SIM-1 and (B) SIM-2 for 48 hrs followed by lactate dehydrogenase (LDH) release assay in the supernatants. The result was offset with cell-bound LDH and presented as a percent of DMSO control as discussed under method section. Half-maximal cytotoxicity or CT50 analyses were performed plotting maximum response as an index of increasing doses of (C) SIM-1 and (D) SIM-2. AnnexinV (green) and propidium iodide (red) dual-labeling were performed to evaluate apoptotic response in MDA-MB-468 cells once treated with increasing doses of (E) SIM-1 and (F) SIM-2 for 24 hrs. Nuclei were stained with DAPI. TUNEL assay was performed in MDA-MB-468 cells after treatment with 25 nM of (G) SIM-1. Brown-colored TUNEL bodies were visualized at cresyl violet-stained blue nuclei. (H) The number of TUNEL bodies were counted as a percent of 100 cresyl violet-stained blue cells. Ten independent images were counted for the quantification study. Similarly, SIM-2 was assessed for (I) TUNEL and (J) subsequent quantification analyses. One-way ANOVA was performed to test the significance of mean between groups at **p<0.01 and ****p<0.0001. […]

For data set [2], the target named is T1, purified STAT1 protein (Homo sapiens, UniProt P42224).
T1 sequence (P42224 1-750): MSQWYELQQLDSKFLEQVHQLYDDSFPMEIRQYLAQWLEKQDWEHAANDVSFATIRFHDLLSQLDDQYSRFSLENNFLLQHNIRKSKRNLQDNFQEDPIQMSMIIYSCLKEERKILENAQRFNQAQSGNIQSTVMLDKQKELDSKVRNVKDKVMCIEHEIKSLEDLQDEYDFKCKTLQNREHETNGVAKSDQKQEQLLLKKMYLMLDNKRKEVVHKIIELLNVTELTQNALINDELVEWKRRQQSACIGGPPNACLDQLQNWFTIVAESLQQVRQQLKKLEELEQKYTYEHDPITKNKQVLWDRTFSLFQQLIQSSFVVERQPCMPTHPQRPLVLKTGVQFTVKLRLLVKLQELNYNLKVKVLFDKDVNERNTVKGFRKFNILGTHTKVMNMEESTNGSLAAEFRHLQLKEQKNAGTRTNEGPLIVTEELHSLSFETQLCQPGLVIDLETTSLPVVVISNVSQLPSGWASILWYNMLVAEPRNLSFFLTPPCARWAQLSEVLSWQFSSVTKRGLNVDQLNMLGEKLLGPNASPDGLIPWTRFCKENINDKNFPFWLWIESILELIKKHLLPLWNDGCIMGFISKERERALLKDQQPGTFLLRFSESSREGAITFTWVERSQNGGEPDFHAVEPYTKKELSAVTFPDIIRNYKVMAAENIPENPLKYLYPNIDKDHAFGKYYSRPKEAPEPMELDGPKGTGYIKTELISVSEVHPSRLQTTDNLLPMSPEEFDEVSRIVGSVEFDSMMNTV
The data set can be described thus: Protein thermal shift (PTS) assay of STAT1. The data set is classed as binding. Conditions: for ΔTm at 0.02 µM: 20 nM. The method, then: FIG. 5 illustrates an embodiment of the present invention and illustrates evaluations of SIM-1 and SIM-2 as STAT3 inhibitors. (A) Protein thermal shift assay was performed to assess the melting of purified recombinant STAT3 (blue; 0.5 μg protein) (Tm=melting temperature=68.88° C.). The representative melting curves were derived after adding SIM-1 (red; 4 nM), SIM-2 (purple; 8 nM), and positive control stattic (grey; 20 nM) to the STAT3 protein. The differences of melting temperature (ΔTm) between pure protein and protein+ligands are −4.54° C., −4.16° C., and 0.39° C. for SIM-1, SIM-2, and stattic (ΔTm^cut-off>2° C.). (B) Phospho protein array analysis was conducted in cell lysates of MDA-MB-468 cells treated with DMSO control (top left), 25 ng/mL EGF (top right), EGF+10 nM SIM-1 (bottom left), and EGF+SIM-2 (bottom right) for 24 hrs. Each colored arrowhead represents a specific phosphoprotein, and the description was added in the bottom of array images. S=serine and Y=tyrosine. Relative levels of (C) Tyrosine 705 (Y705) phosphorylated STAT3, (D) Serine 727 (S727) phosphorylated STAT3, (E) Tyrosine 693 (Y693) phosphorylated STAT4, (F) Tyrosine 694 ([…]) phosphorylated STAT5A had been derived after normalizing the spot densities (n=5) with respective β-actin spots. Results are mean±SD of five different spot analyses. One-way ANOVA was adopted to test the significance of mean between groups at **p<0.01, and ****p<0.0001. Ns=no significance. Thermal shift assays of increasing doses of (G) SIM-1, (H) SIM-2, and (I) stattic with purified STAT1 protein (0.5 μg protein). The respective ΔTm values were given with the plot after matching with the color code. Similarly, full-length STAT5b protein melting was assessed with (J) SIM-1, (K) SIM-2, and (L) stattic. Results are confirmed after three different experiments.
To confirm the result, PTS assay of STAT1 with SIM-1 (FIG. 5G), SIM-2 (FIG. 5H), and stattic (FIG. 5I) was performed. […] Similar results were observed while performing the binding assay with STAT5b.

For the molecule `CCOC(=O)c1c(NC(C)=O)sc2c(Cl)c(/C=N/O)ccc12` [SIM-2, ethyl 2-acetamido-7-chloro-6-(hydroxyiminomethyl)-1-benzothiophene-3-carboxylate], the “apoptosis in healthy normal cells (annexin V/PI)” value in data set [1] is on record as “unable to induce apoptosis”. Moreover, the ΔTm at 0.01 µM in data set [2] (10 nM) came to 0.46 °C. Moreover, in data set [2], the thermal shift (ΔTm) at 0.02 µM is 0.89 °C.

In the case of `O=C(O)CCC(=O)NCc1csc2ccc(Cl)cc12` [SIM-1, 4-[(5-chloro-1-benzothiophen-3-yl)methylamino]-4-oxobutanoic acid], the “apoptosis in healthy normal cells (annexin V/PI)” value in data set [1] is “unable to induce apoptosis”. In data set [2], the thermal shift (ΔTm) at 0.02 µM came to 0.29 °C. The “ΔTm of STAT1” value in data set [2] (concentration printed only as 'nM' (figure missing)) amounted to 0.41 °C.

Values taken from patent publication US20250255847A1, “[…]s: Novel Drugs for Triple Negative Breast Cancer” (SIMMARON RSEARCH INC, priority 2024, published 2025).
